Results: patent US20180282271A1, “ANTIBIOTIC AMINO ACID MIMETICS” (priority 2017, published 2018)
Converted amounts (≈) assume the structure as drawn. “And” between values parts separate entries of the source, which are not always exact repeats. Equal entries are not always repeated. Structures can show the parent of a compound that is named as a salt. Where a SMILES comes first, the peptide text is derived from it. [ ]: non-standard residue; d: D form. The star is where a group is joined. ξ: configuration not given here. ξF = NC(Cc1ccccc1)C(=O)O; ξhCys = NC(CCS)C(=O)O; ξhSer = NC(CCO)C(=O)O; ξC = NC(CS)C(=O)O; tBu = CC(C)(C)*; NHOH = ON*

Experiments:
E. coli = test: MIC, conventional methods; format: cell-based, Escherichia coli
Description: (§1) The following L,L-dipeptides were tested for their minimum inhibitory concentrations against three different bacterial strains as set forth in the table below. The testing protocol followed conventional methods and identified a MIC value reported as micrograms per milliliter (μg/mL). Each of the dipeptides had the following structure: Based on the above results, the sidechain of the methionine mimetic was modified to evaluate the effect of such substitution on MIC values. Again, this test used conventional assays to measure the MIC values of each of these modified mimetics.

S. aureus = test: MIC, conventional methods; format: cell-based, Staphylococcus aureus
Description: as §1

P. aer. = test: MIC, conventional methods; format: cell-based, Pseudomonas aeruginosa
Description: as §1

E. coli (ATTC 8739) = test: Zone of inhibition test; format: cell-based; details: for concentration at which a zone of inhibition was shown: E. coli grown in a Petri dish, FIG. 1A/1B; for strength of the zone of inhibition, in words: cpd. A at 50 μg, Ex. 3 at 12.5 μg
Description: Compound A was tested against L-phenylalanine-(S)-2-amino-N-hydroxy-4-(methylthio)butanamide hydrochloride (Example 3) in a side-by-side comparison in a conventional zone of inhibition test. In this test, both compounds were compared at various concentrations against E. coli (ATTC 8739) grown in a Petri dish using the antibiotic kanamycin as a control.

[1] = system: Clostridium difficile MMX 4381/ATCC 700057; test: Broth microdilution MIC, standard CLSI media, ATCC QC organism; format: cell-based; details: Clostridioides difficile, ATCC700057, 48 hr results
Description: (§2) The test organisms were originally received from clinical sources or from the American Type Culture Collection (ATCC, Manassas, Va.). When received, the organisms were subcultured onto an appropriate agar medium. Following incubation, colonies were harvested from the plate and a cell suspension was prepared in broth containing cryoprotectant and frozen at −80° C. Prior to the assay, a frozen vial of the culture was partially thawed and the contents were streaked for isolation onto an appropriate growth medium. The agar plates were incubated overnight at 35° C. Test organisms included staphylococci and enterococci (Table 1), streptococci (Table 2), Enterobacteriaceae (Table 3), lactose non-fermenting Gram-negative bacilli (Table 4), Haemophilus influenzae (Table 5), Neisseria gonorrhoeae (Table 5), and Clostridium difficile (Table 6).
(§3) The standard CLSI broth medium was employed for the purposes of quality control of the comparator drugs for the MIC assay and was only used for testing of relevant ATCC quality control isolates as established by CLSI (1-5).
(§4) MIC values were determined using a broth microdilution method as recommended by CLSI (1-5).
(§5) Column 1 was filled with 300 μL of the investigational and control agents at the appropriate stock concentration (40× of the highest test concentration). The Biomek 2000 was used to make eleven 2-fold serial dilutions to create a “mother plate.” The wells of column 12 contained no drug and served as growth control wells.
(§6) The daughter plates were prepared on the Biomek FX instrument which transferred 5 μL of drug solution from each well of the mother plate to the corresponding well of each daughter plate in a single step.
(§7) Standardized inoculum of each organism was prepared per CLSI methods (1-5). The inoculum for each organism was dispensed into sterile reservoirs divided by length (Beckman Coulter), and the Biomek 2000 was used to inoculate the plates. Daughter plates were placed on the Biomek 2000 work surface reversed so that inoculation took place from low to high drug concentration. The Biomek 2000 delivered 10 PL of standardized inoculum into each well resulting in a target inoculum size of approximately 5×10^5 CFU/mL. The wells of the daughter plates ultimately contained 185 μL of media, 5 μL of drug solution at 40× the test concentration, and 10 μL of bacterial inoculum prepared in media.
(§8) Plates were stacked 3-4 high, covered with a lid on the top plate, placed into plastic bags, and incubated at 35° C. under the appropriate conditions, with C. difficile incubated anaerobically. Plates were viewed post-incubation at 18-24 hr and again at 48 hr from the bottom using a plate viewer. […] MICs were read where visible growth of the organism was inhibited.

[2] = system: Enterococcus faecalis MMX 101/ATCC 29212; test: as above; format: cell-based
Description: as §2, §3, §4, §5, §6, §7, §8

[3] = system: Escherichia coli MMX 102/ATCC 25922; test: as above; format: cell-based
Description: as §2, §3, §4, §5, §6, §7, §8

[4] = system: Neisseria gonorrhoeae MMX 683/ATCC 49226; test: as above; format: cell-based
Description: as §2, §3, §4, §5, §6, §7, §8

[5] = system: Pseudomonas aeruginosa MMX 103/ATCC 27853; test: as above; format: cell-based
Description: as §2, §3, §4, §5, §6, §7, §8

[6] = system: Escherichia coli UNT116-1 (ATCC25922); test: Murine superficial skin infection model; format: in vivo, mice; details: for Mean log10 CFU/wound: 50 uL topical +4, 8, 12, 16 & 20 hr, sampled +24 hr
Description: Evaluation of high dose of novel test article(s) for the treatment of a superficial skin infection in mice caused by Escherichia coli. […] Strain has been previously used separately for this infection at […]. Female 5-6 week old CD-1 (18-22 gm) were used in the studies. The mice were housed in groups of 5 with free access to food and water during the study. Cytoxan 150 mg/kg@15 mg/mL on Day-4 ONLY. The mice were anesthetized and kept sedated during the initial procedure under isoflurane vapors (3%). The fur on the back dorsal surface was shaved using electric clippers followed by 'wet shaving' with a disposable razor. The skin was then sterilized with a betadine wash followed by alcohol swab. An area of the shaved skin was then abraded utilizing a sterile gauze pad. Following this procedure, the skin became visibly damaged and characterized by reddening and glistening but no bleeding. […] The skin was then wiped with an alcohol swab and allowed to dry completely. After stripping of the skin, a bacterial infection was initiated by placing on the skin a 5-10 μL droplet containing approximately […] of both bacterium concentrated from overnight cultures in stationary phase. [table] Sponsors test articles were prepared in 0.05% methylcellulose. Fresh formulations were prepared for each day of dosing. The first application of each compound (N=10 mice/group) to the stripped skin of the mice was at 4 hr post-infection then continued q4 hr. For each treatment 50 uL of formulation was applied. Infection control groups' untreated mice were included with each experiment. The test was terminated 4 h after the last topical treatment. Immediately after the mice were euthanized (photographs of the wounds were taken for each group), the wounds, approximately 2 cm2, were excised, rinsed in sterile PBS and homogenized together with 2 ml of phosphate-buffered saline in a Polytron tissue homogenizer. The homogenates were washed once in phosphate-buffered saline to decrease the concentration of ointment. Suitable dilutions of the homogenates were plated on appropriate agar (with the addition of charcoal to avoid the effects of antibiotic carryover) for the organism to determine the number of living bacteria (CFU).

[7] = Table 1, L,L-dipeptides varied in T
[8] = Table 2, side chain Q of the methionine mimetic varied
[9] = Study #2, test articles 700 mg/mL, gentamicin 0.30%
[10] = Study #2, test articles 700 mg/mL, gentamicin 0.30%, topical, +24 hr

Molecule | MIC E. coli (E. coli; [7]) | MIC S. aur. (S. aureus; [7]) | MIC P. aer. (P. aer.; [7]) | MIC E. coli (E. coli; [8]) | MIC S. aur. (S. aureus; [8]) | MIC P. aer. (P. aer.; [8]) | further results
CSCC[C@H](NC(=O)[C@H](C)N)C(=O)NO [B] (H-Ala-Met-{NHOH}) | 158 µg/mL (≈ 671 µM) | 131 µg/mL (≈ 557 µM) | 1040 µg/mL (≈ 4420 µM) |  |  |  | 
CSCC[C@H](NC(=O)[C@@H](N)C(C)C)C(=O)NO [C] (H-Val-Met-{NHOH}) | 520 µg/mL (≈ 1970 µM) | 416 µg/mL (≈ 1580 µM) | 833 µg/mL (≈ 3160 µM) |  |  |  | 
CSCC[C@H](NC(=O)CN)C(=O)NO [Compound A] | 138 µg/mL (≈ 624 µM) | 84 µg/mL (≈ 380 µM) | 647 µg/mL (≈ 2920 µM) | 138 µg/mL (≈ 624 µM) | 84 µg/mL (≈ 380 µM) | 647 µg/mL (≈ 2920 µM) | concentration at which a zone of inhibition was shown (E. coli (ATTC 8739)): 50 µg; strength of the zone of inhibition, in words (E. coli (ATTC 8739)): quite weak
CSCC[C@H](NC(=O)[C@@H](N)CCCCN)C(=O)NO [Compound E] | 312 µg/mL (≈ 1070 µM) | 104 µg/mL (≈ 356 µM) | >1660 µg/mL |  |  |  | 
CSCC[C@H](NC(=O)[C@@H](N)CCC(=O)O)C(=O)NO [Compound F] (H-Glu-Met-{NHOH}) | 554 µg/mL (≈ 1890 µM) | 312 µg/mL (≈ 1060 µM) | 1660 µg/mL (≈ 5660 µM) |  |  |  | 
CSCC[C@H](NC(=O)[C@@H]1CCCN1)C(=O)NO [D] (H-Pro-Met-{NHOH}) | 312 µg/mL (≈ 1190 µM) | 125 µg/mL (≈ 478 µM) | 270 µg/mL (≈ 1030 µM) |  |  |  | 
CSCC[C@H](NC(=O)C(N)Cc1ccccc1)C(=O)NO (stereo partly drawn) [Example 3, L-phenylalanine-(S)-2-amino-N-hydroxy-4-(methylthio)butanamide hydrochloride] (H-[ξF]-Met-{NHOH}) |  |  |  |  |  |  | concentration at which a zone of inhibition was shown (E. coli (ATTC 8739)): 12.5 µg; strength of the zone of inhibition, in words (E. coli (ATTC 8739)): substantially stronger than the zone of inhibition for cpd. A at 50 μg
C[S+]([O-])CCC(NC(=O)CN)C(=O)NO (stereo not shown) [G] |  |  |  | 123 µg/mL (≈ 518 µM) | 51 µg/mL (≈ 215 µM) | 416 µg/mL (≈ 1750 µM) | 
CS(=O)(=O)CCC(NC(=O)CN)C(=O)NO (stereo not shown) [H] |  |  |  | 208 µg/mL (≈ 821 µM) | 104 µg/mL (≈ 411 µM) | 416 µg/mL (≈ 1640 µM) | 
CCCCC(NC(=O)CN)C(=O)NO (stereo not shown) [I] |  |  |  | 69 µg/mL (≈ 339 µM) | 51 µg/mL (≈ 251 µM) | 520 µg/mL (≈ 2560 µM) | 
CCSCCC(NC(=O)CN)C(=O)NO (stereo not shown) [J] (H-Gly-[ξhCys](Et)-{NHOH}) |  |  |  | 129 µg/mL (≈ 548 µM) | 60 µg/mL (≈ 255 µM) | 554 µg/mL (≈ 2350 µM) | 
CCCCSCCC(NC(=O)CN)C(=O)NO (stereo not shown) [K] |  |  |  | 150 µg/mL (≈ 570 µM) | 60 µg/mL (≈ 228 µM) | 138 µg/mL (≈ 524 µM) | 
CC(C)(C)SCCC(NC(=O)CN)C(=O)NO (stereo not shown) [L] (H-Gly-[ξhCys](tBu)-{NHOH}) |  |  |  | 207 µg/mL (≈ 786 µM) | 77 µg/mL (≈ 292 µM) | 624 µg/mL (≈ 2370 µM) | 
C/C(=C\C(=O)OCCCCCCCCC(=O)O)C[C@@H]1OC[C@H](C[C@@H]2O[C@H]2[C@@H](C)[C@H](C)O)[C@@H](O)[C@H]1O [MUP, mupirocin] |  |  |  |  |  |  | MIC [1]: > 256 µg/mL; MIC ([2]; ATCC29212, 24 hr results): 256 µg/mL (≈ 511 µM); MIC ([2]; ATCC29212, 48 hr results): > 256 µg/mL; MIC ([3]; ATCC25922, 24 hr results): > 256 µg/mL; MIC ([3]; ATCC25922, 48 hr results): > 256 µg/mL; MIC ([4]; ATCC49226, 24 hr results): > 256 µg/mL; MIC ([4]; ATCC49226, 48 hr results): > 256 µg/mL; MIC ([5]; ATCC27853, 24 hr results): > 256 µg/mL; MIC ([5]; ATCC27853, 48 hr results): > 256 µg/mL
CCSCC(NC(=O)CN)C(=O)NO (stereo not shown) [M] (H-Gly-[ξC](Et)-{NHOH}) |  |  |  | 159 µg/mL (≈ 719 µM) | 104 µg/mL (≈ 470 µM) | 832 µg/mL (≈ 3760 µM) | 
CC(C)(C)SCC(NC(=O)CN)C(=O)NO (stereo not shown) [N] (H-Gly-[ξC](tBu)-{NHOH}) |  |  |  | 195 µg/mL (≈ 782 µM) | 77 µg/mL (≈ 309 µM) | 693 µg/mL (≈ 2780 µM) | 
COCCC(NC(=O)CN)C(=O)NO (stereo not shown) [O] (H-Gly-[ξhSer](Me)-{NHOH}) |  |  |  | 374 µg/mL (≈ 1820 µM) | 112 µg/mL (≈ 546 µM) | 624 µg/mL (≈ 3040 µM) | 
Gentamicin |  |  |  |  |  |  | Mean log10 CFU/wound ([6]; Study #1, test articles 500 mg/mL, gentamicin 0.30%, wounds wrongly sprayed with 70% EtOH for test articles): 2.35 log10 CFU/wound; Mean log10 Change vs. +24 hr ([6]; Study #1, test articles 500 mg/mL, gentamicin 0.30%, topical, +24 hr): −5.37 log10; reduction of bacterial skin burden compared to the 24 hour untreated control [6, 9]: 5.98 log10 CFU/wound; Mean log10 CFU/wound [6, 9]: 2.46 log10 CFU/wound; Log 10 CFU/wound, individual animal [6, 10]: 2.83 Log 10 CFU/wound and 2.35 Log 10 CFU/wound (8×) and 2.95 Log 10 CFU/wound; Mean log10 Change vs. +4 hr [6, 10]: −1.36 log10; Mean log10 Change vs. +24 hr [6, 10]: −5.98 log10; 95.00% CI of diff., Tukey's multiple comparisons test ([6]; Study #2, vs. +4 hr Infection Control): −2.209 to −0.5115; 95.00% CI of diff., Tukey's multiple comparisons test ([6]; Study #2, vs. +24 hr Infection control): −6.678 to −5.292
